According to ChEMBL document CHEMBL5291721, “A preclinical secondary pharmacology resource illuminates target-adverse drug reaction associations of marketed drugs” (Nat Commun, 2023):

What was measured:
[1] = target: Gamma-aminobutyric acid receptor subunit alpha-1/alpha-2/beta-2/gamma-2 (Homo sapiens, UniProt P14867+P18507+P47869+P47870); assay type: functional, cell-based
[2] = target: T1, Endothelin receptor type B (Homo sapiens, UniProt P24530)
T1 sequence (P24530 whole entry): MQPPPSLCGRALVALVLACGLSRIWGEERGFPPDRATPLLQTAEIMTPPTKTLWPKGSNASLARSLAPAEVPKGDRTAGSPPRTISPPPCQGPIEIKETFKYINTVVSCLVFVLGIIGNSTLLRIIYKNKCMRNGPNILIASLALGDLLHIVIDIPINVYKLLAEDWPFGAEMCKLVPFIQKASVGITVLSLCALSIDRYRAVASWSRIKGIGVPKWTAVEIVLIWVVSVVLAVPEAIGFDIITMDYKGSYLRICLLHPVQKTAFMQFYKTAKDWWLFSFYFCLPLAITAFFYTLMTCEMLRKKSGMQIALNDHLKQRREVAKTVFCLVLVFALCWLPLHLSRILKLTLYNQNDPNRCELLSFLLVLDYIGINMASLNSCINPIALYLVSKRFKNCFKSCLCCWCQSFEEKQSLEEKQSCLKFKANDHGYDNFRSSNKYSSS

[3] = target: T2, Alpha-1A adrenergic receptor (Homo sapiens, UniProt P35348)
T2 sequence (P35348 whole entry): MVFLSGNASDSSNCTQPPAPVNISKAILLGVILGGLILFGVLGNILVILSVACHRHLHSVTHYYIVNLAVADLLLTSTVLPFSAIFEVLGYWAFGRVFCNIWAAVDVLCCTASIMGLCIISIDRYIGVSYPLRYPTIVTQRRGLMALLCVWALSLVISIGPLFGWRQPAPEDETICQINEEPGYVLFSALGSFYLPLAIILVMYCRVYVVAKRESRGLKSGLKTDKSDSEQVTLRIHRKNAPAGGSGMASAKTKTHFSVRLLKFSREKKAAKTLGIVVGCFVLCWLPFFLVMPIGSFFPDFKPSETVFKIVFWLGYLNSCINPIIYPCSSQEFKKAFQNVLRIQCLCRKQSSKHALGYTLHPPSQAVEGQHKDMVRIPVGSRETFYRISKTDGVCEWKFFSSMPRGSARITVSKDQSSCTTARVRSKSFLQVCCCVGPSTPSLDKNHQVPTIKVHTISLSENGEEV

Progesterone receptor = target: T3, Progesterone receptor (Homo sapiens, UniProt P06401)
T3 sequence (P06401 whole entry): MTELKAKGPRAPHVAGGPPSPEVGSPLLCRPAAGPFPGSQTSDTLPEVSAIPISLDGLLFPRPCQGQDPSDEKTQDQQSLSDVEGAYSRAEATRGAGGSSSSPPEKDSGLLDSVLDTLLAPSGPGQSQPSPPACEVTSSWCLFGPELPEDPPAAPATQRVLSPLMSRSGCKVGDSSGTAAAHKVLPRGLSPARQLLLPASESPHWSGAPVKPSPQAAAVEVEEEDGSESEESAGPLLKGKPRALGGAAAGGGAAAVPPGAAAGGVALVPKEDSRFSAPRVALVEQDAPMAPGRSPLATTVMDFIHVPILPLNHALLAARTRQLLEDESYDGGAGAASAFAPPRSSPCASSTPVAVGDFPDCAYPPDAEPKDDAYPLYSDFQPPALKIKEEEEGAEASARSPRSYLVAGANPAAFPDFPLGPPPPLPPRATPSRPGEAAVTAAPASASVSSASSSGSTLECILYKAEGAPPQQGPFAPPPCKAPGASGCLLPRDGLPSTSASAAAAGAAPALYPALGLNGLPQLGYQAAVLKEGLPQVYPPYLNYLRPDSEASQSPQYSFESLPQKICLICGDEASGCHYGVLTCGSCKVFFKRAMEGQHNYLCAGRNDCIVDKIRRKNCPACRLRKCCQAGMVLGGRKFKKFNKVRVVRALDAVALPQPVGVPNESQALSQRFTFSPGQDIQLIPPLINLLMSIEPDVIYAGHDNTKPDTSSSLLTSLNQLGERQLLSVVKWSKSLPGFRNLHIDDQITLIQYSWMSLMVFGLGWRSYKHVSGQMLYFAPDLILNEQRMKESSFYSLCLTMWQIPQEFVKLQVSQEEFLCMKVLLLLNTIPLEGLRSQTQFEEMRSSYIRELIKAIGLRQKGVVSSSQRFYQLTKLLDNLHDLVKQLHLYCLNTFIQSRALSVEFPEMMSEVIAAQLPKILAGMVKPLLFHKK

[4] = target: T4, Muscarinic acetylcholine receptor M1 (Homo sapiens, UniProt P11229); assay type: functional, cell-based
T4 sequence (P11229 whole entry): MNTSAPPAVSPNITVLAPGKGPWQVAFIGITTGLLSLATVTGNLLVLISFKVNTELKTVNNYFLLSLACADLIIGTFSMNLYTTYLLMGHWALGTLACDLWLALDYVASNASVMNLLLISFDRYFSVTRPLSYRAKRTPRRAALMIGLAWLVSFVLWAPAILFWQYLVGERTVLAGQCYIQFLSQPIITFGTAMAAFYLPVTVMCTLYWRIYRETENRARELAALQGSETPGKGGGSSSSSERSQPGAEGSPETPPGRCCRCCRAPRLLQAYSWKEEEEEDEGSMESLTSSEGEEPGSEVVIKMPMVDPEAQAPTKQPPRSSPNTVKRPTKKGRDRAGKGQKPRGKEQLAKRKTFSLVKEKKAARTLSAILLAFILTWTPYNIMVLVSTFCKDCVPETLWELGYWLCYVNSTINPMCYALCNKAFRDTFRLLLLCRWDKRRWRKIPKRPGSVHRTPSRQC
Note: assay procedure not described here.

Chain of Gamma-aminobutyric acid receptor subunit alpha-1/alpha-2/beta-2/gamma-2 (P14867 whole entry): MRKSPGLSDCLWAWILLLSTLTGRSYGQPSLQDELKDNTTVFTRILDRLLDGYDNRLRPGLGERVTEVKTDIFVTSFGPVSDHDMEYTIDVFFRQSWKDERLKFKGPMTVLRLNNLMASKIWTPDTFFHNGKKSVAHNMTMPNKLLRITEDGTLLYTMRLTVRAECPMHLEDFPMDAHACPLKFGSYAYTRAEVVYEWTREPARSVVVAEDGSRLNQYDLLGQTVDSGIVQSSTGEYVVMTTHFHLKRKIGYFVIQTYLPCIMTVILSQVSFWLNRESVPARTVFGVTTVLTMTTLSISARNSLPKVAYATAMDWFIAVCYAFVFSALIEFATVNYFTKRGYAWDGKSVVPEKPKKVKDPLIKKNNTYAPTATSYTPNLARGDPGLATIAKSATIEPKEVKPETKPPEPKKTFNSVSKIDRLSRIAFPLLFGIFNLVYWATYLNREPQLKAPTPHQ
Chain of Gamma-aminobutyric acid receptor subunit alpha-1/alpha-2/beta-2/gamma-2 (P47870 whole entry): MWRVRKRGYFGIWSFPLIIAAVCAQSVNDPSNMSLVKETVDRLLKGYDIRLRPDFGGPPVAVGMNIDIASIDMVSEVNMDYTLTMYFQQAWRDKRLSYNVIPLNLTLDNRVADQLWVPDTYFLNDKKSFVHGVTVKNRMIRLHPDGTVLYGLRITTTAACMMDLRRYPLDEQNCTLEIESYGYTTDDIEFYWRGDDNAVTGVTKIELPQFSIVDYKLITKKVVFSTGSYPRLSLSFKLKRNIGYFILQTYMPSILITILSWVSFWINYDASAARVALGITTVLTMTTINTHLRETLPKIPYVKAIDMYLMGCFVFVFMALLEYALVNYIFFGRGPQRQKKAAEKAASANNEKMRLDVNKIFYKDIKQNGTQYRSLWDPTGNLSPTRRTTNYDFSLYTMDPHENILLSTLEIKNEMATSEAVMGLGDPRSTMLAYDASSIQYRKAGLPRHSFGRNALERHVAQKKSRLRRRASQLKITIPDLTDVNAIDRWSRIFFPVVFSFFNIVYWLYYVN
Chain of Gamma-aminobutyric acid receptor subunit alpha-1/alpha-2/beta-2/gamma-2 (P18507 whole entry): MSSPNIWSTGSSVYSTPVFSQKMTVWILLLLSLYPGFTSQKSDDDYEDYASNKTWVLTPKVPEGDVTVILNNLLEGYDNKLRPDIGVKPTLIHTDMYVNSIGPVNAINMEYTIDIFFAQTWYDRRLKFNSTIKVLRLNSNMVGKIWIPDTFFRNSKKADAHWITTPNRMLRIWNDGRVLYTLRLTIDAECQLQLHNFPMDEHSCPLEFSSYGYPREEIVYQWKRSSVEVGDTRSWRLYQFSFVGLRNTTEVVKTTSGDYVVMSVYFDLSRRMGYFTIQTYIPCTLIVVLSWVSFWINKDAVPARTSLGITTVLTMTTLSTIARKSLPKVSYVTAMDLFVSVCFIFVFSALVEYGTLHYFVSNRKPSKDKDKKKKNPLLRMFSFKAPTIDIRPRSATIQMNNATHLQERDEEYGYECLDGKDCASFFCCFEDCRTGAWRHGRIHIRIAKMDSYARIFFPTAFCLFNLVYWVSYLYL
Chain of Gamma-aminobutyric acid receptor subunit alpha-1/alpha-2/beta-2/gamma-2 (P47869 whole entry): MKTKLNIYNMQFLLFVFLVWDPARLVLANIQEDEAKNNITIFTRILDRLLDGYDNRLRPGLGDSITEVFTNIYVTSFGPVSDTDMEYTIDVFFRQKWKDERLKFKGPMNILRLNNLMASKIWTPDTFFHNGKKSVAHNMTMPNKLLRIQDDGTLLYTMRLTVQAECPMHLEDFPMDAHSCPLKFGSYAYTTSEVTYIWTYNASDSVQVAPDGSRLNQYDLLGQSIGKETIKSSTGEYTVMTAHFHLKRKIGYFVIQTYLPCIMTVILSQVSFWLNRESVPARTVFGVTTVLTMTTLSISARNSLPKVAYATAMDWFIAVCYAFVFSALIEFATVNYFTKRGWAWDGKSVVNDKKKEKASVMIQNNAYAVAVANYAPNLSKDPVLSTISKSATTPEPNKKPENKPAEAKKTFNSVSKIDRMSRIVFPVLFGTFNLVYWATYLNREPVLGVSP

CO/N=C(\C(=O)N[C@@H]1C(=O)N2C(C(=O)[O-])=C(C[N+]3(C)CCCC3)CS[C@H]12)c1csc(N)n1
AC50 [1]: > 2400 µM

CCOC(=O)[C@H](CCc1ccccc1)N[C@@H](C)C(=O)N1CCC[C@H]1C(=O)O
AC50 [2]: > 30 µM
AC50 [3]: > 10 µM

Nc1nc(N)c2nc(-c3ccccc3)c(N)nc2n1
AC50 [2]: > 30 µM
AC50 (Progesterone receptor): > 30 µM
AC50 [3]: > 10 µM

C[C@H]1O[C@H](O[C@H]2[C@H](O)[C@@H](O)[C@@H](O[C@H]3[C@H](O)[C@@H](O)C(O)O[C@@H]3CO)O[C@@H]2CO)[C@H](O)[C@@H](O)[C@@H]1N[C@H]1C=C(CO)[C@@H](O)[C@H](O)[C@H]1O (some centres undefined) [ACARBOSE]
AC50 [2]: > 30 µM
AC50 (Progesterone receptor): > 30 µM
AC50 [3]: > 10 µM

CC(=O)c1ccc2c(c1)N(CCCN1CCN(CCO)CC1)c1ccccc1S2 [ACETOPHENAZINE]
AC50 [1]: > 30 µM

Oc1ncnc2[nH]ncc12 [ALLOPURINOL]
AC50 [2]: > 30 µM
AC50 (Progesterone receptor): > 30 µM
AC50 [3]: > 10 µM

CC(N)Cc1ccccc1 (centres undefined) [AMPHETAMINE]
AC50 [2]: > 30 µM
AC50 [1]: > 30 µM
AC50 (Progesterone receptor): > 30 µM

CN1CCCC(n2nc(Cc3ccc(Cl)cc3)c3ccccc3c2=O)CC1 (centres undefined) [AZELASTINE]
AC50 [1]: 19 µM

O=C1c2c(O)c(=O)ccn2N([C@@H]2c3ccccc3SCc3c2ccc(F)c3F)[C@@H]2COCCN12 [BALOXAVIR]
AC50 [4]: > 30 µM

C(=N\NC1=NCCN1)/c1c2ccccc2c(/C=N/NC2=NCCN2)c2ccccc12 [BISANTRENE]
AC50 [4]: > 10 µM

CC(C)NCC(O)COc1ccc(COCCOC(C)C)cc1 (centres undefined) [BISOPROLOL]
AC50 [2]: > 30 µM
AC50 (Progesterone receptor): > 30 µM
AC50 [3]: > 10 µM

COc1cc(Nc2c(C#N)cnc3cc(OCCCN4CCN(C)CC4)c(OC)cc23)c(Cl)cc1Cl [BOSUTINIB]
AC50 [4]: > 10 µM
AC50 [2]: > 30 µM
AC50 (Progesterone receptor): > 30 µM

N[C@@H](C(=O)N[C@@H]1C(=O)N2C(C(=O)O)=C(Cl)CS[C@H]12)c1ccccc1 [CEFACLOR ANHYDROUS]
AC50 [1]: > 30 µM

CCO/N=C(\C(=O)N[C@@H]1C(=O)N2C(C(=O)[O-])=C(Sc3nc(-c4cc[n+](C)cc4)cs3)CS[C@H]12)c1nsc(N)n1 [CEFTAROLINE]
AC50 [4]: > 30 µM

CCC[C@@H]1C[C@@H](C(=O)N[C@@H]([C@H]2O[C@H](SC)[C@H](O)[C@@H](O)[C@H]2O)[C@H](C)Cl)N(C)C1 [CLINDAMYCIN]
AC50 [2]: > 30 µM
AC50 (Progesterone receptor): > 30 µM
AC50 [3]: > 10 µM

C[N+](C)(C)CCCCCCCCCC[N+](C)(C)C [DECAMETHONIUM]
AC50 [4]: > 30 µM

O=C1c2ccccc2C(=O)C1C(=O)C(c1ccccc1)c1ccccc1 [DIPHENADIONE]
AC50 [4]: 7.26 µM

CN(CCOc1ccc(NS(C)(=O)=O)cc1)CCc1ccc(NS(C)(=O)=O)cc1 [DOFETILIDE]
AC50 [4]: > 30 µM
AC50 [2]: > 30 µM
AC50 (Progesterone receptor): > 30 µM
AC50 [3]: > 10 µM

COc1cc2c(cc1OC)C(=O)C(CC1CCN(Cc3ccccc3)CC1)C2 (centres undefined) [DONEPEZIL]
AC50 [4]: > 30 µM
AC50 [2]: > 30 µM
AC50 (Progesterone receptor): > 30 µM

COC(=O)[C@@H]1CC2=CC(=O)CC[C@]2(C)[C@@]23O[C@@H]2C[C@@]2(C)[C@@H](CC[C@@]24CCC(=O)O4)[C@H]13 [EPLERENONE]
AC50 [2]: > 30 µM
AC50 [1]: > 30 µM

C#C[C@]1(O)CC[C@H]2[C@@H]3CCc4cc(O)ccc4[C@H]3CC[C@@]21C [ETHINYL ESTRADIOL]
AC50 [2]: > 30 µM
AC50 (Progesterone receptor): > 30 µM
AC50 [3]: > 10 µM

CCOC(=O)c1ccc(O)cc1 [ETHYLPARABEN]
AC50 [4]: > 30 µM

O=C1[C@H](CC[C@H](O)c2ccc(F)cc2)[C@@H](c2ccc(O)cc2)N1c1ccc(F)cc1 [EZETIMIBE]
AC50 [4]: > 30 µM

NC(N)=Nc1nc(CSCCC(N)=NS(N)(=O)=O)cs1 [FAMOTIDINE]
AC50 [2]: > 30 µM
AC50 (Progesterone receptor): > 30 µM
AC50 [3]: > 10 µM

O=C(COc1ccc(Cl)cc1)N1CCN(Cc2ccc3c(c2)OCO3)CC1 [FIPEXIDE]
AC50 [4]: > 30 µM

CCC(=O)c1c(O)cc(O)cc1O [FLOPROPIONE]
AC50 [4]: > 30 µM

NS(=O)(=O)c1cc2c(cc1Cl)NCNS2(=O)=O [HYDROCHLOROTHIAZIDE]
AC50 [2]: > 30 µM
AC50 (Progesterone receptor): > 30 µM
AC50 [3]: > 10 µM

CC(C)Cc1ccc(CC(=O)O)cc1 [IBUFENAC]
AC50 [1]: > 30 µM

CC(=O)Oc1c(C)cc(OCC(O)CNC(C)C)c(C)c1C (centres undefined) [METIPRANOLOL]
AC50 [4]: > 30 µM

CCN(CC)CCNC(=O)c1cc(Cl)c(N)cc1OC [METOCLOPRAMIDE]
AC50 [2]: > 30 µM
AC50 (Progesterone receptor): > 30 µM
AC50 [3]: > 10 µM

NC(=O)c1ncn([C@@H]2O[C@H](CO)[C@@H](O)[C@H]2O)c1O [MIZORIBINE]
AC50 [1]: > 30 µM

CCc1nn(CCCN2CCN(c3cccc(Cl)c3)CC2)c(=O)n1CCOc1ccccc1 [NEFAZODONE]
AC50 [2]: > 30 µM
AC50 (Progesterone receptor): > 30 µM
AC50 [3]: 0.13 µM

OCCN1CCN(CCCN2c3ccccc3C=Cc3ccccc32)CC1 [OPIPRAMOL]
AC50 [4]: > 30 µM
AC50 [1]: > 30 µM
AC50 [3]: 1.41 µM

NC1=NC(=O)C(c2ccccc2)O1 (centres undefined) [PEMOLINE]
AC50 (Progesterone receptor): > 30 µM

CC(N/C(=N\C#N)Nc1ccncc1)C(C)(C)C (centres undefined) [PINACIDIL ANHYDROUS]
AC50 [4]: > 30 µM

CCc1ccc(CCOc2ccc(CC3SC(=O)NC3=O)cc2)nc1 (centres undefined) [PIOGLITAZONE]
AC50 [2]: > 30 µM
AC50 (Progesterone receptor): > 30 µM
AC50 [3]: > 10 µM

CC(C(=O)O)c1ccc(N2CC=CC2)c(Cl)c1 (centres undefined) [PIRPROFEN]
AC50 [4]: > 30 µM
AC50 [2]: > 30 µM
AC50 (Progesterone receptor): > 30 µM
AC50 [3]: > 10 µM

NC(=O)c1cnccn1 [PYRAZINAMIDE]
AC50 [2]: > 30 µM
AC50 (Progesterone receptor): > 30 µM
AC50 [3]: > 10 µM

CN(C)C(=O)Oc1ccc[n+](C)c1 [PYRIDOSTIGMINE]
AC50 [4]: > 30 µM

O=C(NC[C@H]1CN(c2ccc(N3CCOCC3=O)cc2)C(=O)O1)c1ccc(Cl)s1 [RIVAROXABAN]
AC50 [4]: > 30 µM
AC50 [1]: > 30 µM

CC(C)OC(=O)[C@H](C)N[P@](=O)(OC[C@H]1O[C@@H](n2ccc(=O)[nH]c2=O)[C@](C)(F)[C@@H]1O)Oc1ccccc1 [SOFOSBUVIR]
AC50 [4]: > 30 µM

Cc1ccc(O)c2ncccc12 [TILIQUINOL]
AC50 [4]: > 30 µM

CC(=O)OC[C@H]1O[C@@H](n2ccc(=O)[nH]c2=O)[C@H](OC(C)=O)[C@@H]1OC(C)=O [URIDINE TRIACETATE]
AC50 [4]: > 30 µM

OCc1cc([C@@H](O)CNCCCCCCOCCOCc2c(Cl)cccc2Cl)ccc1O [VILANTEROL]
AC50 [1]: > 30 µM

CCOC(=O)N[C@@H]1CC[C@@H]2[C@@H](C1)C[C@H]1C(=O)O[C@H](C)[C@H]1[C@H]2/C=C/c1ccc(-c2cccc(F)c2)cn1 [VORAPAXAR]
AC50 [4]: > 30 µM

O=C(CCCCCCC(=O)Nc1ccccc1)NO [VORINOSTAT]
AC50 [2]: > 10 µM
AC50 [1]: > 30 µM
AC50 [3]: > 10 µM
